7 molecules from US9458154B2, “Kinase inhibitors” (Chiesi Farmaceutici S.p.A., priority 2011, dated 2016) can be followed below.

The assay addresses T1, p38alpha (Homo sapiens, UniProt Q16539).
T1 construct: purchased Invitrogen PV3304
Description: P38alpha Enzyme Inhibition Assay (Alphascreen kinase activity assay). The class given is biochemical. The following applies: 100 pM p38alpha, ATF-2 fusion protein substrate, 250 μM ATP, 2 hours preincubation at 25° C.; read-out: p38α inhibition. Here is the method:
P38alpha Enzyme Inhibition Assay
The inhibitory activity of compounds was determined using an Alphascreen® (Perkin Elmer) based kinase activity assay. Kinase reactions consisted of 25 mM HEPES pH 7.5, 10 mM MgCl2, 100 μM Na3VO4, 2 mM DTT, 0.05 mg/ml Tween 20, 100 pM p38alpha (Invitrogen, PV3304), 1% DMSO and 0.3 μg/ml ATF-2 fusion protein (New England Biolabs, 9224). Compounds were incubated under these conditions for 2 hours, at 25° C., prior to the initiation of the kinase activity by the addition of the 250 μM ATP. Reaction volumes were 20 uL. After 1 hr at 25° C. reactions were stopped by the adding 10 uL of 25 mM HEPES pH 7.5 containing 62.5 mM EDTA, 0.05% Triton X-100, 10% BSA and 0.83 ng/uL anti-phospho-ATF2 antibody (Abcam, ab28812). Detection was performed by measuring luminescence following the addition of Alphascreen Donor beads (Perkin Elmer 6765300) and Protein A Alphascreen Acceptor beads (Perkin Elmer 6760137), both at a final concentration of 20 ug/ml. IC50 values were determined from concentration-response curves.

Molecules are shown by their SMILES. Counter-ions that a name gives are not always drawn. A value given as a limit tells only on which side of the number the result lay.

T1 sequence (Q16539 whole entry): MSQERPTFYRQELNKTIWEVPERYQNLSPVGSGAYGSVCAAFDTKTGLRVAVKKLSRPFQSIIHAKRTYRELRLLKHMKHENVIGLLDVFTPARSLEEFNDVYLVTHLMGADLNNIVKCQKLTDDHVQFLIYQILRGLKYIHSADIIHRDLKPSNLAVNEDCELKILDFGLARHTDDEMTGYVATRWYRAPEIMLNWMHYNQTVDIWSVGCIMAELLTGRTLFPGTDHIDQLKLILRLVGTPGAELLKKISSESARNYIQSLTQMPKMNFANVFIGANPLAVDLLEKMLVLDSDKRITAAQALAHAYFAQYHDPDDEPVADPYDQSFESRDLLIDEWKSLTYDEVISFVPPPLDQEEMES

As to `CC(C)c1nnc2ccc(O[C@@H]3CC[C@H](NC(=O)Nc4cc(C(C)(C)C)nn4-c4cccc(OCCN5CCOCC5)c4)c4ccccc43)cn12` [Example 6, 1-{5-tert-Butyl-2-[3-(2-morpholin-4-yl-ethoxy)-phenyl]-2H-pyrazol-3-yl}-3-[(1S,4R)-4-(3-isopropyl-[1,2,4]triazolo[4,3-a]pyridin-6-yloxy)-1,2,3,4-tetrahydro-naphthalen-1-yl]-urea], the IC50 is less than 10 nM.
With `CC(C)c1nnc2ccc(O[C@@H]3CC[C@H](NC(=O)Nc4cc(C(C)(C)C)nn4-c4ccccc4)c4ccccc43)cn12` [Example 1, 1-(5-tert-Butyl-2-phenyl-2H-pyrazol-3-yl)-3-[(1S,4R)-4-(3-isopropyl-[1,2,4]triazolo[4,3-a]pyridin-6-yloxy)-1,2,3,4-tetrahydro-naphthalen-1-yl]-urea] the figure was less than 10 nM; with `Cc1ccc(-n2nc(C(C)(C)C)cc2NC(=O)N[C@H]2CC[C@@H](Oc3ccc4nnc(-c5ccccn5)n4c3)c3ccccc32)cc1` [Example 22, 1-(5-tert-Butyl-2-p-tolyl-2H-pyrazol-3-yl)-3-[(1S,4R)-4-(3-pyridin-2-yl-[1,2,4]triazolo[4,3-a]pyridin-6-yloxy)-1,2,3,4-tetrahydro-naphthalen-1-yl}-urea], less than 10 nM; with `Cc1ccc(-n2nc(C(C)(C)C)cc2NC(=O)N[C@H]2CC[C@@H](Oc3ccc4nnc(C5CCCCC5)n4c3)c3ccccc32)cc1` [Example 26, 1-(5-tert-Butyl-2-p-tolyl-2H-pyrazol-3-yl)-3-[(1S,4R)-4-(3-cyclohexyl-[1,2,4]triazolo[4,3-a]pyridin-6-yloxy)-1,2,3,4-tetrahydro-naphthalen-1-yl]-urea], less than 10 nM.
Regarding `COCC(=O)Nc1cc(CO[C@@H]2CC[C@H](NC(=O)Nc3cc(C(C)(C)C)nn3-c3ccc(C)cc3)c3ccccc32)ccn1` [Example 9, N-(4-{(1R,4S)-4-[3-(5-tert-Butyl-2-p-tolyl-2H-pyrazol-3-yl)-ureido]-1,2,3,4-tetrahydro-naphthalen-1-yloxymethyl}-pyridin-2-yl)-2-methoxy-acetamide], the IC50 was less than 10 nM.
In the case of `Cc1ccc(-n2nc(C(C)(C)C)cc2NC(=O)N[C@@H]2C[C@@H](Sc3ccc4nnc(C(C)C)n4c3)c3ccccc32)cc1` (racemic) [Example 3, (±)-trans-1-(5-tert-Butyl-2-p-tolyl-2H-pyrazol-3-yl)-3-[3-(3-isopropyl-[1,2,4]triazolo[4,3-a]pyridin-6-ylsulfanyl)-indan-1-yl]-urea], the IC50 was less than 10 nM.
With `CC(C)c1nnc2ccc(O[C@@H]3CC[C@H](NC(=O)Nc4cc(C(C)(C)C)nn4-c4cccc(CN5CCOCC5)c4)c4ccccc43)cn12` [Example 19, 1-[5-tert-Butyl-2-(3-morpholin-4-ylmethyl-phenyl)-2H-pyrazol-3-yl]-3-[(1S,4R)-4-(3-isopropyl-[1,2,4]triazolo[4,3-a]pyridin-6-yloxy)-1,2,3,4-tetrahydro-naphthalen-1-yl]-urea, formic acid salt] the figure was less than 10 nM.
